This note sets out measurements from patent publication US20190000868A1, “COMPOSITIONS COMPRISING 4'-O-GLUCURONIDE EPICATECHIN AND METHODS OF MAKING AND USING SUCH COMPOSITIONS” (NESTEC S.A., priority 2015, published 2019).

This experiment deals with endothelial nitric oxide synthase. The experiment in a line: eNOS phosphorylation (western blot) in isolated aortic rat rings. The class given is cell-based. More on the design: dose or concentration left out as unconfirmed. The note with it: isolated thoracic aortic rings of male Wistar rats, incubated 1 h, FIG. 4. The protocol: Comparative experiments were conducted on the expression of endothelial nitric oxide synthase in isolated aortic rat rings.
Thoracic aortas were obtained from male adults Wistar rats after euthanasia. Each aorta was carefully dissected and harvested cleaned of excess tissue and cut into three equal segments, approximately 7 mm long. All aortic rings were pre-incubated for 30 min in Krebs solution (20 mM Hepes buffer, pH 7.4, containing 119 mM NaCl, 4.7 mM KCl, 1 mM MgSO4, 0.4 mM NaH2PO4, 0.15 mM Na2HPO4, 5 mM NaHCO3, 1.25 mM CaCl2, 5.5 mM glucose) aerated with 95% O2 and 5% CO2 at 37° C. and then incubated with vehicle (DMSO 1%) or the different metabolites for 1 h. Metabolites were first dissolved in DMSO 1% and tested in a final concentration […]. At the end of the incubation period aortic rings were frozen at −70° C. until the homogenate preparation. Homogenates for western blot and western blot determinations were carried out by the regular procedures and phosphorylation level of endothelial nitric oxide synthase was evaluated.

SMILES strings stand for the structures.

For the molecule `O=C(O)[C@H]1O[C@@H](Oc2ccc([C@H]3Oc4cc(O)cc(O)c4C[C@H]3O)cc2O)[C@H](O)[C@@H](O)[C@@H]1O` [4′-O-glucuronide epicatechins, 4′-O-glucuronide epicatechin], the “phosphorylation level of endothelial nitric oxide synthase (p-eNOS vs eNOS total)” value was “increased eNOS phosphorylation relative to control and chemically similar epicatechins”.
